Test results: patent EP1247803A2, “Indolinone compounds suitable for modulation of protein kinases” (Sugen, Inc., priority 1996, dated 1998)

What was measured:
[1] = test system: MET; assay: MET biochemical kinase assay; set-up: species or system human; concentration or dose not given beside the values
Method in brief: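 MET from cell lysates captured on ELISA plates via rabbit anti-MET cytoplasmic-domain antibody; compounds added and kinase reaction run in ATP and divalent-metal buffer. Receptor phosphotyrosine detected with HRP-conjugated anti-phosphotyrosine antibody and TMB colorimetry.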

[2] = molecular target: T1, EGFR (Homo sapiens, UniProt P00533); assay: EGFR ELISA assay (in vitro kinase activity, EGFR captured from A431 cell lysate); type: biochemical; set-up: concentration or dose not given beside the values
T1 construct: Add 7 ug A431 cell lysate per well (EGFR source); endogenous in cells; host or cells: A431
T1 sequence (P00533 25-1210): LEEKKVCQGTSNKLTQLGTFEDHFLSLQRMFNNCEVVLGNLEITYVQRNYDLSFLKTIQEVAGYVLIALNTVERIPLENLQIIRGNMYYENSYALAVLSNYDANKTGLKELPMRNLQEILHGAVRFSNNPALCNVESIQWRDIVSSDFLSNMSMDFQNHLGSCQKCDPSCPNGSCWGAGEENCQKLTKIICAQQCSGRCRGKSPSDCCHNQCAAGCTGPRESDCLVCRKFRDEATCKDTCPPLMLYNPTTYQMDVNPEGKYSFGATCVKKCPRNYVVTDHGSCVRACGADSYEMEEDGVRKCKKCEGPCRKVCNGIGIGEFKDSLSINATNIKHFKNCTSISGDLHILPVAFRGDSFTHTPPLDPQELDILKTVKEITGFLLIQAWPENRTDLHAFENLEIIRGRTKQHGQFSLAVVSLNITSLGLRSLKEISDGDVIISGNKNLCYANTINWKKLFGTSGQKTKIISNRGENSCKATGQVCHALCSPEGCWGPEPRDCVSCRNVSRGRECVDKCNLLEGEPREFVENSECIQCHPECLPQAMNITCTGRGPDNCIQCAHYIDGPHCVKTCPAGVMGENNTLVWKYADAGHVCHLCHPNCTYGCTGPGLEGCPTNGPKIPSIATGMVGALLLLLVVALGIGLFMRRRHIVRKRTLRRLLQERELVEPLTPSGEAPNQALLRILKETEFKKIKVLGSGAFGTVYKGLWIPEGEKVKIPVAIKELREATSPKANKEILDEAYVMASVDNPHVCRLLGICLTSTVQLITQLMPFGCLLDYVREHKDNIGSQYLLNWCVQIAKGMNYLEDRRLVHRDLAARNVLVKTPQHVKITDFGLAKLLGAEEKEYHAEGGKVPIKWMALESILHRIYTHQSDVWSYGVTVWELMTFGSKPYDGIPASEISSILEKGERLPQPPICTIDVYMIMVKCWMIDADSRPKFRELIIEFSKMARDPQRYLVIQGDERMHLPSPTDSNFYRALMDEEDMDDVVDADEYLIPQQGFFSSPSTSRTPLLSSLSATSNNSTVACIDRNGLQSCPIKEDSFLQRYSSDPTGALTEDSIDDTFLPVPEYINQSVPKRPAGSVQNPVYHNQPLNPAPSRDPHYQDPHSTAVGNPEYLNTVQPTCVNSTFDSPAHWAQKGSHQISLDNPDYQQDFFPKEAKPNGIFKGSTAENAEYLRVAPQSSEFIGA
Method in brief: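 EGFR from A431 lysate was captured on anti-EGFR antibody-coated plates and preincubated with compounds for 30 min. Autophosphorylation ran 5 min with 3 uM ATP and 5 mM MnCl2 (final), stopped with 20 mM EDTA. Phosphotyrosine was detected by anti-pTyr ELISA with ABTS/H2O2, read at 410 nm.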

| Structure (SMILES) | Met Kinase % Inhibition [1] | Biochem EGFR %Inhibition [2] |
| --- | --- | --- |
| CCn1c2ccccc2c2cc(C=C3C(=O)Nc4ccc(Br)c(C)c43)ccc21 [10731/C02] | 11.1% | -6.9% |
| Cc1cc(C=C2C(=O)Nc3ccc(S(=O)(=O)N4CCOCC4)cc32)oc1C [10730/F11] | 53.6% | -24.1% |
| O=C1Nc2ccc(I)cc2C1=Cc1coc2ccc([N+](=O)[O-])cc2c1=O [10731/B07] | 41.6% | 29.1% |
| COc1ccc(C=C2C(=O)Nc3ccc(CCCl)cc32)c(OC)c1OC [10730/G02] | 41.1% | 20.8% |
| COc1ccc2[nH]cc(C=C3C(=O)Nc4ccc(I)cc43)c2c1 [10731/B09] | 29.6% | 15.0% |
| Cc1ccc2occ(C=C3C(=O)Nc4ccc(I)cc43)c(=O)c2c1 [10731/B06] | 56.2% | 37.5% |
| O=C1Nc2c(Br)cc(Br)cc2C1=Cc1coc2ccc([N+](=O)[O-])cc2c1=O [10731/A07] | 49.5% | 39.4% |
| COc1cc(C=C2C(=O)Nc3ccc(CCCl)cc32)cc(OC)c1OC [10730/G04] | 47.7% | -6.7% |
| Cc1c(O)ccc(C=C2C(=O)Nc3ccc(Br)c(C)c32)c1O [10718/C09] | 38.2% | 26.5% |
| O=C1Nc2ccc(CCCl)cc2C1=Cc1cc2ccccc2nc1Cl [10730/G08] | 16.6% | 9.5% |
| CCOC(=O)CCc1c(C(=O)OCC)[nH]c(C=C2C(=O)Nc3ccc(Br)c(C)c32)c1CC(=O)OCC [10718/C05] | 8.7% | 10.9% |
| CCn1c2ccccc2c2cc(C=C3C(=O)Nc4c(Br)cc(Br)cc43)ccc21 [10731/A02] | 23.9% | 14.8% |
| O=C1Nc2ccc(CCCl)cc2C1=Cc1ccc(-c2ccccc2Cl)o1 [10730/G07] | 26.2% | 6.4% |
| CC(C)c1ccc2occ(C=C3C(=O)Nc4ccc(I)cc43)c(=O)c2c1 [10731/B05] | 86.0% | 35.9% |
| CNS(=O)(=O)c1ccc2c(c1)C(=Cc1coc3cc(C)c(C)cc3c1=O)C(=O)N2 [10731/D03] | 40.2% | 16.3% |
| CCOC(=O)c1cc(C=C2C(=O)Nc3ccc(Br)c(C)c32)oc1C [10718/C06] | 3.9% | 5.6% |
| O=C1Nc2c(Br)cc(Br)cc2C1=Cc1c[nH]c(=O)[nH]c1=O [10731/A08] | 59.9% | 25.7% |
| COc1cc(OC)c(OC)cc1C=C1C(=O)Nc2ccc(CCCl)cc21 [10730/G03] | 43.2% | -6.9% |
| Cc1c(Br)ccc2c1C(=Cc1coc3ccc(C(C)C)cc3c1=O)C(=O)N2 [10731/C05] | 78.3% | 35.5% |
| C=C(C)C1CC=C(C=C2C(=O)Nc3c(Br)cc(Br)cc32)CC1 (stereo not shown) [10731/A04] | 43.6% | 20.2% |
| Cc1c(Br)ccc2c1C(=C1C(=O)N(C)c3ccccc31)C(=O)N2 [10731/C10] | 23.3% | 20.9% |
| CN1C(=O)C(=C2C(=O)Nc3c(Br)cc(Br)cc32)c2ccccc21 [10731/A10] | 41.2% | 26.3% |
| Cc1ccc2occ(C=C3C(=O)Nc4ccc(Br)c(C)c43)c(=O)c2c1 [10731/C06] | 18.2% | 23.1% |
